Laboratory results reported in patent US20190256491A1, “Methods For Treatment Of 16P11.2 Microdeletion Syndrome” (Massachusetts Institute of Technology, priority 2012, published 2019).
Entries after “also recorded” stand apart in the source; their conditions may differ.

Experiments:
[1] = test system: mGluR-LTD at the Schaffer collateral-CA1 synapse of hippocampal slices; assay: DHPG-LTD, hippocampal slice electrophysiology; design: species or system mouse; details: CHX 60 μM, 40 min, DHPG 50 μM, 5 min
Experimental: (§1) Electrophysiological experiments were performed at the Schaffer collateral-CA1 synapse of hippocampal slices prepared from p28 to p35 male mice using experimental protocols as previously described ((Auerbach et al., 2011)). Dorsal hippocampal slices (400 μm thick) were used in all recordings. Input-output functions were determined by incrementally (10 μA to 100 μA) stimulating the Schaffer collaterals and recording the resulting fEPSP response. Paired-pulse facilitation was conducted by applying two stimulus pulses at varying inter-stimulus-intervals (ISI). Facilitation was measured by taking the ratio of the fEPSP slope in response to stimulus 2 to that of stimulus 1. […] For paired-pulse low frequency stimulation (PP-LFS) slices were incubated in ACSF containing APV (50 μM)±CHX for 30 min. mGluR5-LTD was then induced by application (20 min) of paired-pulse stimulation (50 ms ISI) at 1 Hz, and synaptic responses were recorded for an additional 60 min.
(§2) Group I mGluR mediated synaptic plasticity was assessed. mGluR-LTD can be induced either by chemical induction by pharmacological stimulation of mGluRs (DHPG-LTD) or electrical induction by applying a series of paired pulses at about 50 ms interval (PP-LFS-LTD). […]

[2] = test system: mGluR5-LTD at the Schaffer collateral-CA1 synapse of hippocampal slices; assay: PP-LFS LTD, hippocampal slice electrophysiology; design: species or system mouse; details: ACSF with APV 50 μM ± CHX 30 min
Experimental: as §1, §2

[3] = test system: chr7qF3 mutant mice (mouse model of human chr16p11.2 microdeletion) and WT mice; assay: Inhibitory avoidance extinction (IAE) test; type: in vivo
Experimental: Inhibitory avoidance extinction (IAE) tests were performed as previously described with modification ((Dolen et al., 2007)). Briefly, 4-6 weeks male mice were divided into four groups according to genotype and CTEP treatment: WT+vehicle, WT+CTEP, Mutant+vehicle, and Mutant+CTEP. CTEP or vehicle was administered by oral gavage every other day for 4 weeks. The last dose was given about 16-20 hours prior to the training session. IA tests were conducted in a two-chambered Perspex box consisting of a lighted side and a dark side separated by a trap door. On the training day, mice were habituated in the behavioral room for about 2 hours before training. During training, a mouse was placed into the lit side of the chamber and allowed to explore for about 30 seconds before the trap door was opened. The ensuing time spent by the animal in the light chamber before entering the dark chamber was recorded as latency. Immediately after fully entering the dark side of the camber, subjects were given about a 2 sec mild foot shock (about 0.4 mA) and allowed to spend an additional 60 sec before being returned to their home-cage. The acquisition and expression of fear memory was tested at about 6, about 24, and about 48 hours post training. The testing protocol used was the same as the training protocol. Latencies to enter the dark side of the chamber were recorded and used as measurement of IAE performance. Statistical significance was determined using two-way ANOVA and post hoc Student's t-tests.
Mice were evaluated in another hippocampus-associated behavioral paradigm: inhibitory avoidance (IA). IA is a multi-phase test used to assay memory formation and extinction. During the training session (0 hr), mice were placed in the light chamber of a two-chamber box. After a variable latency in the light side, they entered the dark side of the box where about a 2 sec foot-shock was delivered. Acquisition and extinction of the fear memory, as measured by the latency to re-enter the dark chamber from the lighted side, was tested 6 hr (acquisition) as well as about 24 hr and about 48 hr (extinction) after training. Experiments were conducted to determine: (1) if chr7qF3 mice had deficits similar to Fmrl KO mice in the IA test, and (2) if deficits were present, could the mGluR5 inhibitor CTEP treatment ameliorate them. Mice were divided into four groups: WT+vehicle, WT+CTEP, Mut+vehicle, and Mut+CTEP. CTEP was given by the same dosing regime previously used with Fmrl KO mice ((Michalon et al., 2012)).

[4] = test system: pre-synaptic glutamate release, Schaffer collateral-CA1 synapse of hippocampal slices; assay: Paired-pulse facilitation at beginning and end of DHPG-LTD experiment; design: species or system mouse; details: both WT and mutant slices; independent of CHX treatment
Experimental: as §1
To test whether the difference in CHX sensitivity between WT and mutant slices was due to a different pre-synaptic response to either DHPG treatment or PP-LFS induction, paired pulse facilitation at the beginning and end of DHPG-LTD experiment (FIGS. 2C and 2D) was assessed. […]

C[C@@H]1C[C@@H]([C@H](O)CC2CC(=O)NC(=O)C2)C(=O)[C@@H](C)C1 [CHX, Cycloheximide]
effect on DHPG-induced LTD ([1]; WT slices): significantly blocked
effect on DHPG-induced LTD ([1]; chr7qF3 mutant slices): no effect; also recorded: remains unaffected
effect on PP-LFS LTD ([2]; WT slices): almost completely blocked
effect on PP-LFS LTD ([2]; chr7qF3 mutant slices): no effect; also recorded: remains unaffected

Cc1nc(C#Cc2ccnc(Cl)c2)c(C)n1-c1ccc(OC(F)(F)F)cc1 [CTEP, 2-chloro-4-((2,5-dimethyl-1-(4-(trifluoromethoxy)phenyl)-1H-imidazol-4-yl)ethynyl)pyridine]
latency to re-enter the chamber ([3]; Chr7qF3 mutant mice, 6, 24 and 48 hours post training, chronic oral gavage every other day for 4 weeks): significantly lengthens
extinction of fear memory at 48 hr ([3]; Mut+CTEP, similar to the two wildtype groups): significant extinction
latency to re-enter the dark chamber at 6 hr (acquisition) ([3]; Mut+CTEP, to a level comparable to WT+vehicle mice): dramatically lengthened
effect on latency to re-enter the chamber ([3]; WT mice, WT+CTEP vs WT+vehicle): no effect
extinction of fear memory at 48 hr ([3]; WT+CTEP): exhibited extinction
cognitive impairment / fear memory deficits in IAE test ([3]; chr7qF3 mutant mice, chronic oral treatment): significantly ameliorates; also recorded: ameliorated

N[C@H](C(=O)O)c1cc(O)cc(O)c1 [DHPG, S-3,5-dihydrozyphenylglycine]
paired pulse facilitation after DHPG treatment [4]: increased paired pulse facilitation
